Source: PMC6515479, “An Investigation on Glucuronidation Metabolite Identification, Isozyme Contribution, and Species Differences of GL-V9 In Vitro and In Vivo” (Molecules, 2019)

Legend:
Type in all cases: in vitro ADME
[1] = Enzyme kinetics of GL-V9 glucuronidation in beagle dog liver microsomes (DLMs); conditions: beagle, dog, liver microsomes, pH 7.4, formation of 5-O-glucuronide GL-V9, protein 0.1 mg/mL, mean ± SD, n = 3
Procedure: (§1) The composition of the incubation system (200 μL) contained liver microsomes of different species (0.1 mg protein/mL), 5 mM saccharolactone (D-saccharic acid 1,4-lactone monohydrate), 10 mM MgCl2, alamethicin (50 μg/mg protein), Tris-HCl buffer (50 mM, pH 7.4) and GL-V9 (1 μM). After 5 min of preincubation at 37 °C, UDPGA (5 mM) was added to initiate the phase II reaction. Control incubation samples were performed without UDPGA or without substrates (GL-V9). The reaction was terminated by addition of ice-cold methanol (three volumes) after incubation for 1 h at 37 °C. Samples were vortexed, centrifuged at 21,500× g for 10 min and then stored at 4 °C until HPLC-UV-TripleTOF analysis. To confirm that these metabolites are conjugates resulting from glucuronidation reaction, enzymatic hydrolysis of samples was processed. β-glucuronidase (100 KU, Sigma) was added and the hydrolysis was performed overnight at 37 °C. The control samples were carried out without β-glucuronidase under the same condition.
(§2) Enzyme kinetics experiments were carried out in triplicate among five different species, including monkey, beagle dog, rat, mouse, and human. The reaction system and operations are as same as described in Section 4.3. The solutions of GL-V9 were selected over a range of concentrations (0.05, 0.2, 0.5, 1, 2, 5, 10, 20 μM). […]

[2] = test system: beagle dog liver microsomes (DLMs); experiment: as above; conditions: formation of 5-O-glucuronide GL-V9, protein 0.1 mg/mL, mean ± SD, n = 3
Procedure: as §1, §2

rUGT1A6 = biological target: T1, rUGT1A6 (Homo sapiens, UniProt P19224); experiment: UGT phenotyping of GL-V9 glucuronidation, rUGT1A6; conditions: GL-V9 0.5, 1, 5 μM, 37 °C, 1 h
T1 construct: purchased Corning (Woburn, MA, USA)
T1 sequence (P19224 27-532): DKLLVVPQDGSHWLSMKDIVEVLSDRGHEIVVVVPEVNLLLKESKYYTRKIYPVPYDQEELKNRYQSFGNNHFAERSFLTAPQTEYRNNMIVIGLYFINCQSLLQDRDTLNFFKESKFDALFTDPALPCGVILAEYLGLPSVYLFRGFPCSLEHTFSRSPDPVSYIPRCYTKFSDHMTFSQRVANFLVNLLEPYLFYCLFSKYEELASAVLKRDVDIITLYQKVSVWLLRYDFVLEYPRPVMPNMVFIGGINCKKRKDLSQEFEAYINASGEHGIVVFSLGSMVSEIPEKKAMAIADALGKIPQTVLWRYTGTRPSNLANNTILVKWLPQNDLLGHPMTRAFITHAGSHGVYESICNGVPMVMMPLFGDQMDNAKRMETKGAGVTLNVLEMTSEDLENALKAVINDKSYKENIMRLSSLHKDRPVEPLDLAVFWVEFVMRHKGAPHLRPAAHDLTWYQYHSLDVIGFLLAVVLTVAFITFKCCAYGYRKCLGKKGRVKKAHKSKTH
Procedure: as §1
Twelve human recombinant UGT isoforms (rUGT1A1, rUGT1A3, rUGT1A4, rUGT1A6, rUGT1A7, rUGT1A8, rUGT1A9, rUGT1A10, rUGT2B4, rUGT2B7, rUGT2B15, and rUGT2B17) were employed to identify the main UGT enzyme(s) responsible for glucuronidation of GL-V9 under mixture conditions as described in Section 4.3. […]

Km at 1 h [1]: 12.5 ± 1.43 µM
Vmax [2]: 22.03 ± 0.42 pmol/min/mg
Metabolism rate (glucuronidation) (rUGT1A6): too low to be biologically relevant
Structure (SMILES): COc1c(OCCCCN2CCCC2)cc(O)c2c(=O)cc(-c3ccccc3)oc12 [GL-V9]
